Usually EC50 stands for the concentration giving half of the maximal effect.

What all share (type): cell-based
Assay [1] concerns the target T1, human somatostatin receptor subtype 2 (Homo sapiens, UniProt P30874).
T1 construct: expressed in transfected cells
As to the kind of experiment: Functional cAMP assay for SSTR2 agonists (HTRF) in CHO-K1 cells. To be noted: CHO-K1 cells stably expressing human SST2, 20 min. The method, boiled down: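 Agonism scored as loss of NKH477 (1.6 μM)-driven cAMP, with IBMX present, after 20 min, 37° C. exposure of stably transfected CHO-K1 cells to compound dilutions (typically 0-10,000 nM). Lysates read by time-resolved FRET; cAMP interpolated from standard curve and EC50 derived.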

Another assay has as its target T2, SST2 (Homo sapiens, UniProt P30874).
T2 construct: host or cells: PathHunter CHO-K1 SST2 cells
As to the kind of experiment: PathHunter CHO-K1 SST2 internalization assay. To be noted: PathHunter CHO-K1 SST2, 90 min. The method, boiled down:
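IC50 comes from four-parameter curves on background-corrected duplicates of Beta-Glo luminescence, read after 60 min at room temperature in the dark. Before that, CHO-K1 SST2 internalization cells (48 h post-seeding) received SMDC as eleven threefold dilutions, 10 uM highest final, for 90 min at 37 C.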

Assay [2] deals with NCI-H524 (ATCC) human small cell lung cancer cells. The method, boiled down: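 CellTiter-Glo luminescence after a 2 h SMDC pulse (top dose 1 uM, 2-fold dilutions, 11 points), medium wash, then 70 h recovery. Cells were seeded at 5,000/well and dosed 24 h later. % inhibition vs control gave IC50 via four-parameter fit.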

Like-named read-outs stand apart in the source and are kept apart here. Starred links: 1 amine or outer side, 2 acyl side, 3 side chain; linkers in the order of their positions; H or OH if unused. Non-standard residues stand in square brackets, D forms with d. Residues, ends and D or L forms follow the SMILES beside them. *: point of attachment. PABC(3-O-βDGlc) = O=C(OCc1ccc(N[*:1])c(O[C@@H]2O[C@H](CO)[C@@H](O)[C@H](O)[C@H]2O)c1)[*:2]; X1 = Cc1cc(F)cc(-c2cnc(NCCNC(=O)CCOCCC(=O)*)c(-c3nc4ccc(Cl)cc4[nH]3)c2N2CCC(N)CC2)c1; Dolaproine = CO[C@@H]([C@@H]1CCCN1)[C@@H](C)C(=O)O; Dil = CC[C@H](C)[C@H](NC)[C@@H](CC(=O)O)OC; X2 = C[C@@H](N*)[C@@H](O)c1ccccc1; NMeV = CN[C@H](C(=O)O)C(C)C

T2 sequence (P30874 whole entry): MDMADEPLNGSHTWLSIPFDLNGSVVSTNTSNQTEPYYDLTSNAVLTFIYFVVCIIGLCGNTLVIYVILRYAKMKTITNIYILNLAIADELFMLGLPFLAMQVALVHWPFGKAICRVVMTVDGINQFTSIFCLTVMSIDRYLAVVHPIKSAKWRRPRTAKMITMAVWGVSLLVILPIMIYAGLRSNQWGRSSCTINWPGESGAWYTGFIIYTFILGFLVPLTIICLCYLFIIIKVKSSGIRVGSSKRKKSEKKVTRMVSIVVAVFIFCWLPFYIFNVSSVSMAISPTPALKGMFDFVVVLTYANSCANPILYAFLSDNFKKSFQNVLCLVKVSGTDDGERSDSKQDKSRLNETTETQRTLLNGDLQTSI
T1 sequence (P30874 whole entry): as above

For `CC[C@H](C)[C@@H]([C@@H](CC(=O)N1CCC[C@H]1[C@H](OC)[C@@H](C)C(=O)N[C@H](C)[C@@H](O)c1ccccc1)OC)N(C)C(=O)[C@@H](NC(=O)[C@H](C(C)C)N(C)C(=O)OCc1ccc(NC(=O)[C@H](C)NC(=O)[C@@H](NC(=O)[C@H](CCC(=O)O)NC(=O)CCOCCC(=O)NCCNc2ncc(-c3cc(C)cc(F)c3)c(N3CCC(N)CC3)c2-c2nc3ccc(Cl)cc3[nH]2)C(C)C)c(O[C@@H]2O[C@H](CO)[C@@H](O)[C@H](O)[C@H]2O)c1)C(C)C` [Compound 67] (X1-EVA[PABC(3-O-βDGlc)][NMeV]V[Dil][Dolaproine]-X2), the results for the EC50 (in assay [1] (read-out: hSST2 cAMP Avg EC50); on SST2 (read-out: Internalization EC50); in assay [2] (2 h)) were 0.19 nM, 6.7 nM and 41 nM, respectively.
For `CC[C@H](C)[C@@H]([C@@H](CC(=O)N1CCC[C@H]1[C@H](OC)[C@@H](C)C(=O)N[C@H](C)[C@@H](O)c1ccccc1)OC)N(C)C(=O)[C@@H](NC(=O)[C@H](C(C)C)N(C)C(=O)OCc1ccc(NC(=O)[C@H](CCCNC(N)=O)NC(=O)[C@@H](NC(=O)CCOCCNCCNc2ncc(-c3cc(C)cc(F)c3)c(N3CCC(N)CC3)c2-c2nc3ccc(Cl)cc3[nH]2)C(C)C)cc1)C(C)C` [Compound 84], in that order: 0.51 nM, 9.7 nM and 24 nM.
For `CC[C@H](C)[C@@H]([C@@H](CC(=O)N1CCC[C@H]1[C@H](OC)[C@@H](C)C(=O)N[C@H](C)[C@@H](O)c1ccccc1)OC)N(C)C(=O)[C@@H](NC(=O)[C@H](C(C)C)N(C)C(=O)OCc1ccc(NC(=O)[C@H](CCCNC(N)=O)NC(=O)[C@@H](NC(=O)[C@@H](CCC(=O)O)NC(=O)CCOCCC(=O)NCCNc2ncc(-c3cc(C)cc(F)c3)c(N3CCC(N)CC3)c2-c2nc3ccc(Cl)cc3[nH]2)C(C)C)cc1C(=O)NCCN)C(C)C` [Compound 101], in that order: 0.22 nM, 6.7 nM and 34 nM.
For `CC[C@H](C)[C@@H]([C@@H](CC(=O)N1CCC[C@H]1[C@H](OC)[C@@H](C)C(=O)N[C@H](C)[C@@H](O)c1ccccc1)OC)N(C)C(=O)[C@@H](NC(=O)[C@H](C(C)C)N(C)C(=O)OCc1ccc(NC(=O)[C@H](CCCNC(N)=O)NC(=O)[C@@H](NC(=O)[C@H](CCC(=O)O)NC(=O)CCOCCOCCOCCOCCC(=O)NCCNc2ncc(-c3cc(C)cc(F)c3)c(N3CCC(N)CC3)c2-c2nc3ccc(Cl)cc3[nH]2)C(C)C)c(O[C@@H]2O[C@H](C(=O)O)[C@@H](O)[C@H](O)[C@H]2O)c1)C(C)C` [Compound 144], in that order: 0.21 nM, 6.9 nM and 120 nM.
As to `CC[C@H](C)[C@@H]([C@@H](CC(=O)N1CCC[C@H]1[C@H](OC)[C@@H](C)C(=O)N[C@H](C)[C@@H](O)c1ccccc1)OC)N(C)C(=O)[C@@H](NC(=O)[C@H](C(C)C)N(C)C(=O)OCc1ccc(NC(=O)[C@H](CCCNC(N)=O)NC(=O)[C@@H](NC(=O)CCCCC(=O)NCCNc2ncc(-c3cc(C)cc(F)c3)c(N3CCC(N)CC3)c2-c2nc3ccc(Cl)cc3[nH]2)C(C)C)c(O[C@@H]2O[C@H](C(=O)O)[C@@H](O)[C@H](O)[C@H]2O)c1)C(C)C` [Compound 63], the values for the EC50 (in assay [1] (read-out: hSST2 cAMP Avg EC50); at SST2 (read-out: Internalization EC50); in assay [2] (2 h)) were 0.16 nM, 16 nM and 13 nM, respectively.
Consider `CC[C@@]1(O)C(=O)OCc2c1cc1n(c2=O)Cc2c-1nc1cc(F)c(C)c3c1c2[C@@H](NC(=O)OCc1ccc(NC(=O)[C@H](CCCNC(N)=O)NC(=O)[C@@H](NC(=O)CN2CCN(CC(=O)O)CCN(CC(=O)NCCOCCC(=O)NCCNc4ncc(-c5cc(C)cc(F)c5)c(N5CCC(N)CC5)c4-c4nc5ccc(Cl)cc5[nH]4)CC2)C(C)C)cc1)CC3` [Compound 72], for which the EC50 stood at 0.28 nM in assay [1] (hSST2 cAMP Avg EC50 (nM)); 3.9 nM at SST2 (Internalization EC50 (nM)); 31 nM in assay [2] (2 h treatment, washout, additional 70 h, read-out: H524 EC50).
`CC[C@H](C)[C@@H]([C@@H](CC(=O)N1CCC[C@H]1[C@H](OC)[C@@H](C)C(=O)N[C@H](C)[C@@H](O)c1ccccc1)OC)N(C)C(=O)[C@@H](NC(=O)[C@H](C(C)C)N(C)C(=O)OCc1ccc(NC(=O)[C@H](CCCNC(N)=O)NC(=O)[C@@H](NC(=O)[C@H](CCC(=O)O)NC(=O)CCOCCOCCOCCOCCC(=O)NCCNc2ncc(-c3cc(C)cc(F)c3)c(N3CCC(N)CC3)c2-c2nc3ccc(Cl)cc3[nH]2)C(C)C)cc1C(=O)NCCN)C(C)C` [Compound 47]: the EC50 is 0.091 nM in assay [1] (read-out: hSST2 cAMP Avg EC50), 9 nM on SST2 (read-out: Internalization EC50) and 18.7 nM in assay [2] (2 h).
For `CC[C@H](C)[C@@H]([C@@H](CC(=O)N1CCC[C@H]1[C@H](OC)[C@@H](C)C(=O)N[C@H](C)[C@@H](O)c1ccccc1)OC)N(C)C(=O)[C@@H](NC(=O)[C@H](C(C)C)N(C)C(=O)OCc1ccc(NC(=O)[C@H](C)NC(=O)[C@@H](NC(=O)CCOCCOCCC(=O)NCCNc2ncc(-c3cc(C)cc(F)c3)c(N3CCC(N)CC3)c2-c2nc3ccc(Cl)cc3[nH]2)C(C)C)c(O[C@@H]2O[C@H](C(=O)O)[C@@H](O)[C@H](O)[C@H]2O)c1)C(C)C` [Compound 149], the concentration giving a half-maximal response (EC50) in assay [1] (read-out: hSST2 cAMP Avg EC50) was 0.099 nM; at SST2 (read-out: Internalization EC50), 5.2 nM; in assay [2] (2 h) it was 5 nM.
For the molecule `CC[C@H](C)[C@@H]([C@@H](CC(=O)N1CCC[C@H]1[C@H](OC)[C@@H](C)C(=O)N[C@H](C)[C@@H](O)c1ccccc1)OC)N(C)C(=O)[C@@H](NC(=O)[C@H](C(C)C)N(C)C(=O)OCc1ccc(NC(=O)[C@H](C)NC(=O)[C@@H](NC(=O)[C@H](CCC(=O)O)NC(=O)CCOCCC(=O)NCCNc2ncc(-c3cc(C)cc(F)c3)c(N3CCC(N)CC3)c2-c2nc3ccc(Cl)cc3[nH]2)C(C)C)cc1C(=O)NCCN)C(C)C` [Compound 116], the EC50 in assay [1] (read-out: hSST2 cAMP Avg EC50) stood at 0.1 nM; on SST2 (read-out: Internalization EC50), 3.9 nM; in assay [2] (2 h), 6.6 nM.
Turning to `CC[C@H](C)[C@@H]([C@@H](CC(=O)N1CCC[C@H]1[C@H](OC)[C@@H](C)C(=O)N[C@H](C)[C@@H](O)c1ccccc1)OC)N(C)C(=O)[C@@H](NC(=O)[C@H](C(C)C)N(C)C(=O)OCc1ccc(NC(=O)[C@H](CCCNC(N)=O)NC(=O)[C@@H](NC(=O)CN2CCN(CC(=O)O)CCN(CC(=O)NCCOCCOCCOCCOCCC(=O)NCCNc3ncc(-c4cc(C)cc(F)c4)c(N4CCC(N)CC4)c3-c3nc4ccc(Cl)cc4[nH]3)CC2)C(C)C)cc1)C(C)C` [Compound 39], the EC50 in assay [1] (read-out: hSST2 cAMP Avg EC50) was 0.12 nM; on SST2 (read-out: Internalization EC50) it was 18.7 nM; in assay [2] (2 h), 35.9 nM.
Take `CC[C@H](C)[C@@H]([C@@H](CC(=O)N1CCC[C@H]1[C@H](OC)[C@@H](C)C(=O)N[C@H](C)[C@@H](O)c1ccccc1)OC)N(C)C(=O)[C@@H](NC(=O)[C@H](C(C)C)N(C)C(=O)OCc1ccc(NC(=O)[C@H](C)NC(=O)[C@@H](NC(=O)[C@H](CCC(=O)O)NC(=O)CCOCCC(=O)NCCNc2ncc(-c3cc(C)cc(F)c3)c(N3CCC(N)CC3)c2-c2nc3ccc(Cl)cc3[nH]2)C(C)C)c(O[C@@H]2O[C@H](C(=O)O)[C@@H](O)[C@H](O)[C@H]2O)c1)C(C)C` [Compound 145]: the EC50 in assay [1] (read-out: hSST2 cAMP Avg EC50) amounted to 0.25 nM; at SST2 (read-out: Internalization EC50) it was 7.9 nM; in assay [2] (2 h), 150 nM.
For `CCC(C)C(C(CC(=O)N1CCCC1C(OC)C(C)C(=O)NC(C)C(O)c1ccccc1)OC)N(C)C(=O)C(NC(=O)C(C(C)C)N(C)C(=O)OCc1ccc(NC(=O)CNC(=O)[C@H](Cc2ccccc2)NC(=O)CNC(=O)CNC(=O)CCOCCC(=O)NCCNc2ncc(-c3cc(C)cc(F)c3)c(N3CCC(N)CC3)c2-c2nc3ccc(Cl)cc3[nH]2)cc1)C(C)C` (stereo in doubt) [Compound 35], in that order: 0.58 nM, 6.1 nM and 17.4 nM.
For `CC[C@H](C)[C@@H]([C@@H](CC(=O)N1CCC[C@H]1[C@H](OC)[C@@H](C)C(=O)N[C@H](C)[C@@H](O)c1ccccc1)OC)N(C)C(=O)[C@@H](NC(=O)[C@H](C(C)C)N(C)C(=O)OCc1ccc(NC(=O)[C@H](CCCNC(N)=O)NC(=O)[C@@H](NC(=O)[C@H](CS(N)(=O)=O)NC(=O)CCOCCC(=O)NCCNc2ncc(-c3cc(C)cc(F)c3)c(N3CCC(N)CC3)c2-c2nc3ccc(Cl)cc3[nH]2)C(C)C)cc1C(=O)NCCN)C(C)C` [Compound 159], in that order: 0.3 nM, 10 nM and 2.6 nM.
Take `CCC(C)C(C(CC(=O)N1CCCC1C(OC)C(C)C(=O)NC(C)C(O)c1ccccc1)OC)N(C)C(=O)C(NC(=O)C(C(C)C)N(C)C(=O)OCc1ccc(NC(=O)[C@H](CCCNC(N)=O)NC(=O)[C@@H](NC(=O)CCOCCC(=O)NCCNc2ncc(-c3cc(C)cc(F)c3)c(N3CCC(N)CC3)c2-c2nc3ccc(Cl)cc3[nH]2)C(C)C)cc1)C(C)C` (stereo in doubt) [Compound 26]: the EC50 in assay [1] (read-out: hSST2 cAMP Avg EC50) is 0.3 nM; at SST2 (read-out: Internalization EC50) it was 11.6 nM; in assay [2] (2 h) it was 10.6 nM.
Turning to `CC[C@H](C)[C@@H]([C@@H](CC(=O)N1CCC[C@H]1[C@H](OC)[C@@H](C)C(=O)N[C@H](C)[C@@H](O)c1ccccc1)OC)N(C)C(=O)[C@@H](NC(=O)[C@H](C(C)C)N(C)C(=O)OCc1ccc(NC(=O)[C@H](CCCNC(N)=O)NC(=O)[C@@H](NC(=O)[C@H](CCC(N)=O)NC(=O)CCOCCOCCOCCOCCC(=O)NCCNc2ncc(-c3cc(C)cc(F)c3)c(N3CCC(N)CC3)c2-c2nc3ccc(Cl)cc3[nH]2)C(C)C)cc1C(=O)NC)C(C)C` [Compound 60], the EC50 is 0.1 nM in assay [1] (read-out: hSST2 cAMP Avg EC50), 13 nM on SST2 (read-out: Internalization EC50) and 35 nM in assay [2] (2 h).

Values taken from US12134610B2, “Somatostatin subtype-2 receptor (SST2R) targeted therapeutics and uses thereof” (priority 2022, dated 2024).
